Experimental data: patent publication US4973603A, “Platelet activating factor antagonist and methods of use therefor” (priority 1989, dated 1990)

Tested on: arachidonic acid
Test: The Mouse Ear Edema Test (arachidonic acid-induced skin edema)
Type: in vivo, mouse (Charles River CD-1, female)
Settings: for % Inhibition of Edema: 1 hour before arachidonic acid (0.5 mg)
Excerpt: The direct application of arachidonic acid to skin, such as the mouse ear, produces an edematous response which is believed to be mediated by eicosanoids resulting from the actions of both cyclooxygenase and lipoxygenase systems. J. M. Young, D. A. Spires, C. J. Bedford, B. Wagner, S. J. Ballaron and L. M. DeYoung, J. Invest. Dermatol. 82:367-371 (1984); E. E. Opas, R. J. Bonney, and J. L. Hanes J. Invest. Dermatol. 84:253-256 (1985). PAF has been reported to cause the release of arachidonic acid, and as a result, gives rise to increased levels of eicosanoids in the exposed tissues. F. H. Chilton, J. T. Flaherty, C. E. Walsh, M. J. Thomas, R. L. Wykle, L. R. DeChatelet and B. M. Waite, J. Biol. Chem., 257:5402-5407 (1982). Thus, the mouse ear edema test can be used to discover substances which antagonize the effects of PAF.
The test drugs were dissolved in 10 μl ethanol and applied to the inner surface of the left ears of Charles River CD-1 female mice. Control values were obtained by applying 10 μl of ethanol to the right ear so that each mouse served as its own control. One hour later, arachidonic acid (0.5 mg/ear in 10 μl ethanol) was applied to both ears and allowed to act on the skin for one hour. The mice were then killed by cervical dislocation and the ears removed so that all tissue samples were of equivalent areas. The extent of edema in each sample was measured by weighing on an analytical balance.

CCCCCc1cc(O)c2c(c1)OC(C)(C)C1CC=C(C(=O)O)CC21 (stereo not shown) [Formula I, 6a,7,10,10a-tetrahydro-6,6-dimethyl-9-carboxyl-3-pentyl-6H-dibenzo[b,d]pyran-1-ol]
% Inhibition of Edema (0.13 mg/ear topical): 0.6% | % Inhibition of Edema (0.25 mg/ear topical): 18.3% | % Inhibition of Edema (0.50 mg/ear topical): 19.1% | % Inhibition of Edema (1.0 mg/ear topical): 19.3% | reduction of arachidonic acid-induced skin edema (in words) (topical, mouse ear): effective in reducing arachidonic acid-induced skin edema | relative activity versus naproxen (topical, mouse ear): more active than the widely used antiinflammatory drug naproxen | relative potency versus indomethacin and phenidone (topical, mouse ear): approximately one half the potency of agents such as indomethacin and phenidone
